Test results: ChEMBL document CHEMBL2440076, “New triarylpyrazoles as broad-spectrum anticancer agents: design, synthesis, and biological evaluation” (Eur J Med Chem, 2013)

What was measured:
[1] = test system: UO-31; assay: Growth inhibition of human UO31 cells assessed as cell growth at 10 uM after 48 hrs by sulforhodamine B assay; assay type: functional; conditions: UO-31, 48 h, read-out: Activity
[2] = Growth inhibition of human HCC2998 cells after 48 hrs by sulforhodamine B assay; assay type: functional; conditions: HCC 2998, 48 h
[3] = test system: SNB-19; assay: Growth inhibition of human SNB19 cells assessed as cell growth at 10 uM after 48 hrs by sulforhodamine B assay; assay type: functional; conditions: SNB-19, 48 h, read-out: Activity
[4] = test system: HL-60(TB); assay: Growth inhibition of human HL-60(TB) cells after 48 hrs by sulforhodamine B assay; assay type: functional; conditions: HL-60, 48 h
[5] = test system: 786-0; assay: Growth inhibition of human 786-0 cells assessed as cell growth at 10 uM after 48 hrs by sulforhodamine B assay; assay type: functional; conditions: 786-0, 48 h, read-out: Activity
[6] = test system: PC-3; assay: Growth inhibition of human PC3 cells assessed as cell growth at 10 uM after 48 hrs by sulforhodamine B assay; assay type: functional; conditions: PC-3, 48 h, read-out: Activity
[7] = test system: UACC-257; assay: Growth inhibition of human UACC257 cells after 48 hrs by sulforhodamine B assay; assay type: functional; conditions: UACC-257, 48 h
[8] = test system: ACHN; assay: Growth inhibition of human ACHN cells after 48 hrs by sulforhodamine B assay; assay type: functional
[9] = test system: UACC-62; assay: Growth inhibition of human UACC62 cells after 48 hrs by sulforhodamine B assay; assay type: functional; conditions: UACC-62, 48 h
[10] = test system: SK-OV-3; assay: Growth inhibition of human SKOV3 cells assessed as cell growth at 10 uM after 48 hrs by sulforhodamine B assay; assay type: functional; conditions: SK-OV-3, 48 h, read-out: Activity
[11] = test system: Malme-3M; assay: Growth inhibition of human MALME-3M cells assessed as cell growth at 10 uM after 48 hrs by sulforhodamine B assay; assay type: functional; conditions: read-out: Activity
[12] = test system: OVCAR-3; assay: Growth inhibition of human OVCAR3 cells after 48 hrs by sulforhodamine B assay; assay type: functional, cell-based; conditions: OVCAR-3, 48 h
[13] = test system: SK-MEL-28; assay: Growth inhibition of human SK-MEL-28 cells after 48 hrs by sulforhodamine B assay; assay type: functional; conditions: SK-MEL-28, 48 h
[14] = test system: SNB-19; assay: Growth inhibition of human SNB19 cells after 48 hrs by sulforhodamine B assay; assay type: functional; conditions: SNB-19, 48 h
[15] = test system: HT-29; assay: Growth inhibition of human HT-29 cells after 48 hrs by sulforhodamine B assay; assay type: functional; conditions: HT-29, 48 h
[16] = test system: NCI-H460; assay: Growth inhibition of human NCI-H460 cells assessed as cell growth at 10 uM after 48 hrs by sulforhodamine B assay; assay type: functional; conditions: NCI-H460, 48 h, read-out: Activity
[17] = test system: NCI-H23; assay: Growth inhibition of human NCI-H23 cells after 48 hrs by sulforhodamine B assay; assay type: functional; conditions: NCI-H23, 48 h
[18] = test system: HT-29; assay: Growth inhibition of human HT-29 cells assessed as cell growth at 10 uM after 48 hrs by sulforhodamine B assay; assay type: functional; conditions: HT-29, 48 h, read-out: Activity
[19] = test system: SK-MEL-2; assay: Growth inhibition of human SK-MEL-2 cells assessed as cell growth at 10 uM after 48 hrs by sulforhodamine B assay; assay type: functional; conditions: SK-MEL-2, 48 h, read-out: Activity
[20] = test system: SF-268; assay: Growth inhibition of human SF268 cells assessed as cell growth at 10 uM after 48 hrs by sulforhodamine B assay; assay type: functional; conditions: SF-268, 48 h, read-out: Activity
[21] = test system: NCI-H23; assay: Growth inhibition of human NCI-H23 cells assessed as cell growth at 10 uM after 48 hrs by sulforhodamine B assay; assay type: functional; conditions: NCI-H23, 48 h, read-out: Activity
[22] = test system: HOP-62; assay: Growth inhibition of human HOP62 cells assessed as cell growth at 10 uM after 48 hrs by sulforhodamine B assay; assay type: functional; conditions: HOP-62, 48 h, read-out: Activity
[23] = test system: M14; assay: Growth inhibition of human M14 cells assessed as cell growth at 10 uM after 48 hrs by sulforhodamine B assay; assay type: functional; conditions: M14, 48 h, read-out: Activity
[24] = test system: OVCAR-8; assay: Growth inhibition of human OVCAR8 cells assessed as cell growth at 10 uM after 48 hrs by sulforhodamine B assay; assay type: functional; conditions: OVCAR-8, 48 h, read-out: Activity
[25] = test system: LOX IMVI; assay: Growth inhibition of human LOXIMVI cells after 48 hrs by sulforhodamine B assay; assay type: functional
[26] = test system: COLO 205; assay: Growth inhibition of human COLO205 cells assessed as cell growth at 10 uM after 48 hrs by sulforhodamine B assay; assay type: functional; conditions: COLO 205, 48 h, read-out: Activity
[27] = test system: SK-OV-3; assay: Growth inhibition of human SKOV3 cells after 48 hrs by sulforhodamine B assay; assay type: functional; conditions: SK-OV-3, 48 h
[28] = test system: LOX IMVI; assay: Growth inhibition of human LOXIMVI cells assessed as cell growth at 10 uM after 48 hrs by sulforhodamine B assay; assay type: functional; conditions: read-out: Activity
[29] = test system: HCT-116; assay: Growth inhibition of human HCT116 cells assessed as cell growth at 10 uM after 48 hrs by sulforhodamine B assay; assay type: functional; conditions: HCT-116, 48 h, read-out: Activity
[30] = test system: SR; assay: Growth inhibition of human SR cells after 48 hrs by sulforhodamine B assay; assay type: functional
[31] = test system: SK-MEL-5; assay: Growth inhibition of human SK-MEL-5 cells after 48 hrs by sulforhodamine B assay; assay type: functional; conditions: SK-MEL-5, 48 h
[32] = test system: HOP-92; assay: Growth inhibition of human HOP92 cells after 48 hrs by sulforhodamine B assay; assay type: functional, cell-based; conditions: HOP-92, 48 h
[33] = test system: M14; assay: Growth inhibition of human M14 cells after 48 hrs by sulforhodamine B assay; assay type: functional; conditions: M14, 48 h
[34] = test system: 786-0; assay: Growth inhibition of human 786-0 cells after 48 hrs by sulforhodamine B assay; assay type: functional; conditions: 786-0, 48 h
[35] = read-out: LC50 (the source's name)

SMILES: COc1cc(-c2nn(-c3cccc(NC(=O)Nc4ccc(Cl)c(Cl)c4)c3)cc2-c2ccncc2)ccc1Cl
- growth at 10 µM [1]: 15.9%
- GI50 [2]: 1560 nM
- TGI [2]: 6200 nM
- CC50 [2, 35]: > 50000 nM
- growth at 10 µM [3]: 27.2%
- GI50 [4]: 1660 nM
- TGI [4]: > 50000 nM
- CC50 [4, 35]: > 50000 nM
- growth at 10 µM [5]: 15.3%
- growth at 10 µM [6]: -17.6%
- GI50 [7]: 1040 nM
- TGI [7]: 3110 nM
- CC50 [7, 35]: > 50000 nM
- GI50 [8]: 1000 nM
- TGI [8]: > 50000 nM
- CC50 [8, 35]: > 50000 nM
- GI50 [9]: 773 nM
- LC50 (50% lethal concentration) [9]: 4490 nM
- TGI [9]: 1860 nM
- growth at 10 µM [10]: 11.8%
- growth at 10 µM [11]: -19.9%
- GI50 [12]: 697 nM
- IC50 [12]: 700 nM
- TGI [12]: 2270 nM
- CC50 [12, 35]: > 50000 nM
- GI50 [13]: 1430 nM
- LC50 [13]: > 50000 nM
- TGI [13]: 7320 nM
- GI50 [14]: 1720 nM
- LC50 (concentration killing 50% of cells) [14]: > 50000 nM
- TGI [14]: > 50000 nM
- GI50 [15]: 1240 nM
- TGI [15]: 6460 nM
- CC50 [15, 35]: > 50000 nM
- growth at 10 µM [16]: 2.32%
- GI50 [17]: 1410 nM
- LC50 [17]: > 50000 nM
- TGI [17]: 5190 nM
- growth at 10 µM [18]: 1.12%
- growth at 10 µM [19]: -44.2%
- growth at 10 µM [20]: 17.9%
- growth at 10 µM [21]: 1.67%
- growth at 10 µM [22]: 10.2%
- growth at 10 µM [23]: 0.29%
- growth at 10 µM [24]: -17.2%
- GI50 [25]: 954 nM
- LC50 [25]: > 50000 nM
- TGI [25]: 2620 nM
- growth at 10 µM [26]: -80.4%
- GI50 [27]: 1930 nM
- TGI [27]: > 50000 nM
- CC50 [27, 35]: > 50000 nM
- growth at 10 µM [28]: 1.38%
- growth at 10 µM [29]: 8.67%
- GI50 [30]: 932 nM
- TGI [30]: 2800 nM
- CC50 [30, 35]: > 50000 nM
- GI50 [31]: 741 nM
- LC50 (concentration killing 50% of cells) [31]: 3020 nM
- TGI [31]: 1490 nM
- GI50 [32]: 151 nM
- IC50 [32]: 150 nM
- LC50 [32]: > 50000 nM
- TGI [32]: 1470 nM
- GI50 [33]: 911 nM
- LC50 (concentration killing 50% of cells) [33]: 41200 nM
- TGI [33]: 2690 nM
- GI50 [34]: 1310 nM
- TGI [34]: 4470 nM
- CC50 [34, 35]: > 50000 nM
